Measured values published in ChEMBL document CHEMBL4354807, “Natural Product Albiziabioside A Conjugated with Pyruvate Dehydrogenase Kinase Inhibitor Dichloroacetate To Induce Apoptosis-Ferroptosis-M2-TAMs Polarization for Combined Cancer Therapy” (J Med Chem, 2019).
pIC50: −log10 of the molar value. Activity calls are given as the source filed them. The calls are words filed in the database; no cut-off is given here.

Tests used:
[1] = target: [Pyruvate dehydrogenase (acetyl-transferring)] kinase isozyme 1, mitochondrial (Homo sapiens) (UniProt Q15118); test: Inhibition of PDK1 (unknown origin) expressed in human MCF7 cells using PDK tide as substrate measured after 90 mins in presence of ATP by ADP-Glo luminescent kinase assay
[2] = system: MCF7; test: Anticancer activity against human MCF7 cells overexpressing PDK assessed as reduction in cell viability after 72 hrs by MTT assay; type: functional, cell-based; conditions: MCF7, 72 h
[3] = system: A-375; test: Cytotoxicity against human A375 cells assessed as reduction in cell viability after 72 hrs by MTT assay; type: functional, cell-based; conditions: A-375, 72 h
[4] = system: MCF7; test: Induction of mitochondrial dysfunction in human MCF7 cells assessed as cell population with mitochondrial membrane potential collapse at 10 uM after 24 hrs by JC1 staining-based FACScalibur flow cytometry analysis (reference value: 2.74 %); type: functional
[5] = system: MCF7; test: Induction of mitochondrial dysfunction in human MCF7 cells assessed as cell population with intact mitochondrial membrane potential at 10 uM after 24 hrs by JC1 staining-based FACScalibur flow cytometry analysis (reference value: 97%); type: functional
[6] = system: HCT-116; test: Anticancer activity against human HCT116 cells expressing PDK assessed as reduction in cell viability after 72 hrs by MTT assay; type: functional, cell-based; conditions: HCT-116, 72 h
[7] = system: MCF7; test: Induction of ROS generation in human MCF7 cells assessed as ROS level at 10 uM after 24 hrs by DCFDA-fluorescence based flow cytometry (reference value: 6.57 %); type: functional
[8] = system: MCF7; test: Inhibition of glycolysis in human MCF7 cells assessed as reduction in intracellular lactate level at 10 uM after 6 hrs by microplate reader assay; type: functional, cell-based
[9] = system: MCF7; test: Inhibition of glycolysis in human MCF7 cells assessed as reduction in extracellular lactate level at 10 uM after 6 hrs by microplate reader assay; type: functional, cell-based
[10] = system: 4T1; test: Inhibition of glycolysis in mouse 4T1 cells expressing PDK assessed as reduction in extracellular lactate level at 10 uM after 6 hrs by microplate reader assay; type: functional, cell-based
[11] = system: 4T1; test: Inhibition of glycolysis in mouse 4T1 cells expressing PDK assessed as reduction in intracellular lactate level at 10 uM after 6 hrs by microplate reader assay; type: functional, cell-based
[12] = system: MCF7; test: Induction of apoptosis in human MCF7 cells assessed as viable cells at 10 uM after 24 hrs by Annexin V-FITC/propidium iodide staining-based flow cytometric analysis (reference value: 93.39 %); type: functional; conditions: MCF7, 24 h, read-out: Activity
[13] = system: MCF7; test: Induction of apoptosis in human MCF7 cells assessed as early apoptotic cells at 10 uM after 24 hrs by Annexin V-FITC/propidium iodide staining-based flow cytometric analysis (reference value: 3.53 %); type: functional
[14] = system: MCF7; test: Induction of apoptosis in human MCF7 cells assessed as late apoptotic cells at 10 uM after 24 hrs by Annexin V-FITC/propidium iodide staining-based flow cytometric analysis (reference value: 2.97 %); type: functional
[15] = system: MCF7; test: Induction of apoptosis in human MCF7 cells assessed as necrotic cells at 10 uM after 24 hrs by Annexin V-FITC/propidium iodide staining-based flow cytometric analysis (reference value: 0.10 %); type: functional
[16] = system: MCF7; test: Cytotoxicity against human MCF7 cells assessed as cell death at 10 uM pretreated with Z-VAD-fmk followed by compound addition by MTT assay; type: functional, cell-based
[17] = system: A-375; test: Anticancer activity against human A375 cells expressing PDK assessed as reduction in cell viability after 72 hrs by MTT assay; type: functional, cell-based; conditions: A-375, 72 h
[18] = system: 4T1; test: Anticancer activity against mouse 4T1 cells expressing PDK assessed as reduction in cell viability after 72 hrs by MTT assay; type: functional, cell-based; conditions: 4T1, 72 h
[19] = Cytotoxicity against human HBMEC cells assessed as reduction in cell viability after 72 hrs by MTT assay; type: cell-based
[20] = system: L02; test: Cytotoxicity against human LO2 cells assessed as reduction in cell viability after 72 hrs by MTT assay; type: cell-based; conditions: L02, 72 h
[21] = system: MCF7; test: Antitumor activity against human MCF7 cells xenografted in BALB/c nude mouse assessed as tumor growth inhibition at 10 mg/kg, iv administered every two days for two weeks measured after 14 days; type: functional, organism-based
[22] = Toxicity in BALB/c nude mouse xenografted with human MCF7 cells assessed as mouse death at 10 mg/kg, iv administered every 2 days for 2 weeks measured after 14 days; type: organism-based; conditions: in vivo, 336 h
[23] = Toxicity in BALB/c nude mouse xenografted with human MCF7 cells assessed as effect on body weight at 10 mg/kg, iv administered every 2 days for 2 weeks measured after 14 days; type: organism-based; conditions: in vivo, 336 h
[24] = system: MCF7; test: (§1) Induction of metabolic reversal from aerobic glycolysis to oxidative phosphorylation in human MCF7 cells assessed as increase in extracellular acidification rate at 10 uM pretreated for 4 hrs followed by glucose addition after 25 mins by seahorse XF24 extracellular flux analyzer assay; type: functional, cell-based
[25] = system: MCF7; test: as §1, with “mins followed by subsequent addition of oligomycin A after 50 mins” for “mins”; type: functional, cell-based
[26] = system: MCF7; test: as §1, with “decrease” for “increase”, “mins followed by subsequent addition of oligomycin A after 50 mins followed by 2-DG addition after 80 mins” for “mins”; type: functional, cell-based
[27] = system: MCF7; test: (§2) Induction of metabolic reversal from aerobic glycolysis to oxidative phosphorylation in human MCF7 cells assessed as […] at 10 uM pretreated for 6 hrs followed by oligomycin A addition after 25 mins followed by subsequent addition of FCCP after 50 mins followed by antimycin/rotenone addition after 80 mins by seahorse XF24 extracellular flux analyzer assay; type: functional, cell-based
[28] = system: MCF7; test: Downregulation of PDK expression in human MCF7 cells at 2.5 to 10 uM after 48 hrs by Western blot analysis; type: functional, cell-based
[29] = system: MCF7; test: Induction of mitochondrial dysfunction in human MCF7 cells assessed as cell population with intact mitochondrial membrane potential at 30 uM after 24 hrs by JC1 staining-based FACScalibur flow cytometry analysis (reference value: 97%); type: functional
[30] = system: MCF7; test: Induction of mitochondrial dysfunction in human MCF7 cells assessed as cell population with mitochondrial membrane potential collapse at 30 uM after 24 hrs by JC1 staining-based FACScalibur flow cytometry analysis (reference value: 2.74 %); type: functional
[31] = system: MCF7; test: Induction of ROS generation in human MCF7 cells assessed as ROS level at 30 uM after 24 hrs by DCFDA-fluorescence based flow cytometry (reference value: 6.57 %); type: functional
[32] = system: MCF7; test: Inhibition of glycolysis in human MCF7 cells assessed as reduction in intracellular lactate level at 30 uM after 6 hrs by microplate reader assay; type: functional, cell-based
[33] = system: MCF7; test: Inhibition of glycolysis in human MCF7 cells assessed as reduction in extracellular lactate level at 30 uM after 6 hrs by microplate reader assay; type: functional, cell-based
[34] = system: 4T1; test: Inhibition of glycolysis in mouse 4T1 cells expressing PDK assessed as reduction in extracellular lactate level at 30 uM after 6 hrs by microplate reader assay; type: functional, cell-based
[35] = system: 4T1; test: Inhibition of glycolysis in mouse 4T1 cells expressing PDK assessed as reduction in intracellular lactate level at 30 uM after 6 hrs by microplate reader assay; type: functional, cell-based
[36] = system: MCF7; test: Induction of apoptosis in human MCF7 cells assessed as viable cells at 30 uM after 24 hrs by Annexin V-FITC/propidium iodide staining-based flow cytometric analysis (reference value: 93.39 %); type: functional; conditions: MCF7, 24 h, read-out: Activity
[37] = system: MCF7; test: Induction of apoptosis in human MCF7 cells assessed as early apoptotic cells at 30 uM after 24 hrs by Annexin V-FITC/propidium iodide staining-based flow cytometric analysis (reference value: 3.53 %); type: functional
[38] = system: MCF7; test: Induction of apoptosis in human MCF7 cells assessed as late apoptotic cells at 30 uM after 24 hrs by Annexin V-FITC/propidium iodide staining-based flow cytometric analysis (reference value: 2.97 %); type: functional
[39] = system: MCF7; test: Induction of apoptosis in human MCF7 cells assessed as necrotic cells at 30 uM after 24 hrs by Annexin V-FITC/propidium iodide staining-based flow cytometric analysis (reference value: 0.10 %); type: functional
[40] = system: MCF7; test: Cytotoxicity against human MCF7 cells assessed as cell death at 30 uM pretreated with Z-VAD-fmk followed by compound addition by MTT assay; type: functional, cell-based
[41] = system: MCF7; test: Antitumor activity against human MCF7 cells xenografted in BALB/c nude mouse assessed as tumor growth inhibition at 30 mg/kg, iv administered every two days for two weeks measured after 14 days; type: functional, organism-based
[42] = Toxicity in BALB/c nude mouse xenografted with human MCF7 cells assessed as mouse death at 30 mg/kg, iv administered every 2 days for 2 weeks measured after 14 days; type: organism-based; conditions: in vivo, 336 h
[43] = Toxicity in BALB/c nude mouse xenografted with human MCF7 cells assessed as effect on body weight at 30 mg/kg, iv administered every 2 days for 2 weeks measured after 14 days; type: organism-based; conditions: in vivo, 336 h
[44] = system: MCF7; test: (§3) Induction of metabolic reversal from aerobic glycolysis to oxidative phosphorylation in human MCF7 cells assessed as increase in extracellular acidification rate at 30 uM pretreated for 4 hrs followed by glucose addition after 25 mins by seahorse XF24 extracellular flux analyzer assay; type: functional, cell-based
[45] = system: MCF7; test: as §3, with “mins followed by subsequent addition of oligomycin A after 50 mins” for “mins”; type: functional, cell-based
[46] = system: MCF7; test: as §3, with “decline” for “increase”, “mins followed by subsequent addition of oligomycin A after 50 mins followed by 2-DG addition after 80 mins” for “mins”; type: functional, cell-based
[47] = system: MCF7; test: as §2, with “30” for “10”; type: functional, cell-based

In the case of CC1(C)CC[C@]2(C(=O)O)CC[C@]3(C)C(=CC[C@@H]4[C@@]5(C)CC[C@H](O[C@@H]6O[C@H](CO[C@@H]7OC[C@H](O)[C@H](O)[C@H]7O)[C@@H](O)[C@H](O)[C@H]6NC(=O)CCl)C(C)(C)[C@@H]5CC[C@]43C)[C@@H]2C1, the inhibition [1] was “inactive”.

In the case of CC(=O)N[C@H]1[C@H](O[C@H]2CC[C@]3(C)[C@H]4CC=C5[C@@H]6CC(C)(C)CC[C@]6(C(=O)O)CC[C@@]5(C)[C@]4(C)CC[C@H]3C2(C)C)O[C@H](CO[C@@H]2OC[C@H](O)[C@H](O)[C@H]2O)[C@@H](O)[C@@H]1O, the pIC50 [2] was 4.69, the pIC50 [3] was 5.26 and the inhibition [1] was “inactive”. It also gave an Activity [4] of 25.86%, an Activity [5] of 72.69% and a pIC50 [6] of 4.67. The Activity [7] was 26.43%, the inhibition [8] was “inactive” and the inhibition [9] was “inactive”. The inhibition [10] was “inactive”, the inhibition [11] was “inactive” and the viability at 10 µM [12] was 70.4%. The Activity [13] was 18.5%, the Activity [14] was 9.07% and the Activity [15] was 2.07%. For the same compound, the Activity [16] was “inactive”, the pIC50 [17] was 5.24 and the pIC50 [18] was 4.79. The pIC50 [19] was 4.43, the pIC50 [20] was 4.48 and the Activity [21] was “Active”. For the same compound, the Activity [22] was “Non-Toxic”, the Activity [23] was “Non-Toxic” and the Activity [24] was “Active”. The Activity [25] was “Active”, the Activity [26] was “Active” and the Activity [27] was “Active”.

Work on O=c1[nH]cc(F)c(=O)[nH]1 [FLUOROURACIL] yielded a pIC50 [6] of 4.58, a pIC50 [17] of 4.68 and a pIC50 [18] of 4.55. The pIC50 [19] was 4.56, the pIC50 [20] was 4.53 and the Activity [21] was “Active”. For the same compound, the Activity [22] was “Non-Toxic” and the Activity [23] was “Non-Toxic”.

In the case of O=C([O-])C(Cl)Cl.[Na+] [SODIUM DICHLOROACETATE], the pIC50 [2] was < 4.00, the inhibition [1] was “Active” and the Activity [28] was “inactive”. For the same compound, the pIC50 [6] was < 4.00, the Activity [29] was 84.95% and the Activity [30] was 14.63%. For the same compound, the Activity [31] was 15.13%, the inhibition [32] was “inactive” and the inhibition [33] was “inactive”. For the same compound, the inhibition [34] was “inactive”, the inhibition [35] was “inactive” and the viability at 30 µM [36] was 79.9%. It also gave an Activity [37] of 12.57%, an Activity [38] of 5.86% and an Activity [39] of 1.67%. For the same compound, the Activity [40] was “inactive”, the pIC50 [17] was < 4.00 and the pIC50 [18] was < 4.00. The pIC50 [19] was < 4.00, the pIC50 [20] was < 4.00 and the Activity [41] was “Active”. The Activity [42] was “Non-Toxic”, the Activity [43] was “Non-Toxic” and the Activity [44] was “Active”. For the same compound, the Activity [45] was “Active”, the Activity [46] was “Active” and the Activity [47] was “Active”.
